Data on seven compounds can be found in paper PMC7025647, “Identifying the Naphthalene-Based Compound 3,5-Dihydroxy 2-Napthoic Acid as a Novel Lead Compound for Designing Lactate Dehydrogenase-Specific Antibabesial Drug” (Frontiers in Pharmacology, 2020).

Where “and” joins values, the source holds several entries; their conditions need not be identical. Identical values can stand only once. Like-named read-outs stand apart in the source and are kept apart here. Some results are limits rather than exact numbers.

For series [1], the system named is B. microti ATCC PRA-99 strain. Briefly: Growth inhibition of B. microti in vitro. The format is cell-based, Babesia microti. The following applies: for IC50: Babesia microti. The method, then:
(§1) Three BALB/c mice were intraperitoneally injected with 1 x 10^7 parasites (100 μl fresh blood), and their blood was collected from the tail when parasitemia reached ~60% at day 7 post-infection. The growth inhibition assay of B. microti in vitro was performed by incubating freshly isolated infected mouse red blood cells (RBCs) with varying concentrations of the drugs. Briefly, […] infected mouse RBCs was diluted with 5 μl non-infected mouse RBCs and 10 μl non-infected human RBCs to achieve ~3% parasitemia in a total of 40 μl and suspended in 110 μl of a growth medium (20% bovine serum and 80% medium HL20) containing the indicated concentrations of drugs (50, 100, and 250 μM). The cultures were maintained at 37°C for 72 h in a gas mixture of 2% O2, 5% CO2, and 93% N2. Two naphthalene-based compounds DBHCA and DHNA were prepared as 100 mM stock solutions in DMSO and further diluted with growth medium. Each concentration of the compounds was tested in triplicate, while three wells received a drug-free culture medium as a control. 10 μM diminazene aceturate (DA) was selected as a positive control. Parasitemia was determined at 72 h post-treatment by enumerating a total of at least 1,000 RBCs in a Giemsa-stained thin smear. Differences in the percent parasitemia were statistically analyzed using one-way ANOVA analysis, and the IC50 values were calculated manually for obtaining more reliable data (Käber method). The hemolysis of DBHCA and DHNA against B. microti-free erythrocytes was monitored by cell counting chamber at 72 h post-treatment. All the experiments were separately repeated three times.

The target in series [2] is human lactate dehydrogenase (HmLDH). Also on record: method as in Conners et al., 2005. The settings on record: ref Conners et al., 2005; cited from earlier work.
The target of series [3] is recombinant BmLDH (rBmLDH) (Babesia microti, UniProt I7J7V6). Briefly: biochemical. Type of series: biochemical. The following applies: for selectivity over human LDH: rBmLDH vs human LDH. The method, then: The enzyme activity of rBmLDH was analyzed using Lactate Dehydrogenase Activity Assay Kit (Sigma-Aldrich, Shanghai, China) according to the manufacturer’s instruction. Briefly, the enzymatic activity of BmLDH was detected by catalyzing the conversion of lactate to pyruvate, with concomitant reduction of NAD^+ to NADH. The coupled reaction was followed by measuring absorbance at 450 nm and at 37°C. Three naphthalene-based compounds [2,6-naphthalenedicarboxylic acid (NDCA), 1,6-dibromo-2-hydroxynapthalene 3-carboxylic acid (DBHCA), and 3,5-dihydroxy 2-napthoic acid (DHNA)] were purchased from Sigma-Aldrich (Shanghai, China) with 99% purity for NDCA and 97% purity for DBHCA and DHNA. In the inhibitory analysis, three naphthalene-based compounds were prepared as 100 mM stock solution in 100% dimethylsulfoxide (DMSO) ( Table 2 ).
The half-maximal inhibitory concentration (IC50) values were determined in the presence of various concentrations of the three naphthalene-based compounds. […] The absorbance Tinitia and Tfinal (5 min) was measured at 450 nm. XY graphs were drawn by linear regression and error bars represent means ± SD of three independent experiments.

Series [4] relates to B. microti-free erythrocytes. Briefly: Hemolysis of B. microti-free erythrocytes. The format is cell-based. The settings on record: drug levels up to 250 µM, 72 h post-treatment. The method, then:
as §1, with “Each concentration of the compounds was tested in triplicate, while three wells received a drug-free culture medium as a control. 10 μM diminazene aceturate (DA) was selected as a positive control.” left out, “All the experiments were separately repeated three times.” left out

Series [5] concerns Plasmodium falciparum lactate dehydrogenase (PfLDH). The following applies: 2005, cited from earlier work; for IC50: ref Conners et al.
A further series deals with rBmLDH (Babesia microti, UniProt I7J7V6). Briefly: Surface plasmon resonance binding kinetics (Biacore T200). The settings on record: for koff: read-out: k d. The method, then:
The binding properties of the rBmLDH against DBHCA and DHNA were measured separately by SPR experiment with a Biacore T200 system (GE Healthcare, Uppsala, Sweden). Briefly, a sensor chip CM5 was put into a Biacore T200 system and washed with the running buffer (PBST+0.5% DMSO, pH7.5). The CM5 chip was activated by injecting the mixture of 0.1 M N-hydroxysuccinimide (NHS) and 0.4 M 1-ethyl-3-(3-dimethylaminopropyl) carbodiimide hydrochloride (EDC) (1:1, v/v) at a flow rate of 10 μl·min^−1 for 20 min. Then, the rBmLDH diluted to 10 μg·ml^−1 with 10 mM sodium acetate buffer (pH 4.0, 4.5, 5.0, and 5.5) was covalently immobilized on the CM5 chip at a flow rate of 10 μl·min^−1 until the immobilization level of BmLDH reached 2,100 resonance units (RU). Ethanolamine solution was injected to block the remaining unreacted esters. Flow cell 1 was activated and blocked as the reference surface, while flow cell 2 served as the experimental surface. The 100 mM stocks of the two small molecule compounds were further diluted with PBST into 500, 250, 125, 62.5, 31.25, and 15.625 μM. The surface of CM5 sensor chip was fully regenerated using 10 mM glycine pH2.5 at a flow rate of 30 μl min^−1 for 30 s. The SPR kinetic experiments were performed three times and the values were presented as the mean ± SD of three independent experiments.
For binding kinetic assays, standard solutions of two naphthalene-based compounds (DBHCA and DHNA) at different concentrations were tested and the data were fitted with a 1:1 binding kinetic model.
Background: SPR reads the build-up and loss of mass on a sensor chip optically.

The subject of a further series is Vero cells. Briefly: Cytotoxicity test by MTT method. The format is cell-based, African green monkey. The settings on record: for SI (selectivity index): between B. microti and Vero cells. The method, then:
(§2) Mycoplasma-free Vero cell line (ATCC-CCL-81, immortalized cells) was preserved in liquid nitrogen with the additive of DMSO in the State Key Laboratory of Agricultural Microbiology, Huazhong Agricultural University, China. […] After adding 10 µl MTT (5 mg/ml in medium) into each test well, the plate was further incubated for another 2 h, followed by removing the culture from the incubator and discarding the medium. […] The plate was gently mixed on a gyratory shaker for 10 min and the absorbances were measured at a wavelength of 570 nm using a microplate reader (BioTek, Vermont, USA). The background absorbances of the multi-well plate at 690 nm were subtracted from the 570 nm measurement. […] The CC50 values were calculated using GraphPad Prism 5 (San Diego, CA, USA), and all the cytotoxicity tests were performed three times.

The nature of series [6]: Cytotoxicity test by MTT method. The following applies: African green monkey, Vero cells (ATCC-CCL-81), MTT, 72 h. The format is cell-based, African green monkey. How it is done:
as §2

The test system of a further series is human LDH-B. Also on record: method as in Deck et al., 1998; Rellinger et al., 2017. The following applies: even at high concentrations; ref Deck et al., 1998; Rellinger et al., 2017; cited from earlier work.
Series [7] deals with glyceraldehyde-3-phosphate dehydrogenase. Set-up: method as in Deck et al., 1998; Rellinger et al., 2017. The settings on record: even at high concentrations; ref Deck et al., 1998; Rellinger et al., 2017; cited from earlier work.
The target of the next series is LDH-C4. The settings on record: mammalian LDHs, competitive with NADH binding; read-out: K i for LDH-C4; cited from earlier work.
The next series has as its target BmLDH. Also on record: method as in Yu et al., 2019. The settings on record: ref Yu et al., 2019; read-out: K i against BmLDH; cited from earlier work.
In the next series the target is LDH-B4. The settings on record: mammalian LDHs, competitive with NADH binding; read-out: K i for LDH-B4; cited from earlier work.
For a further series, the system named is Babesia bovis. Set-up: method as in Bork et al., 2004. The following applies: ref Bork et al., 2004; read-out: IC50 in vitro against B. bovis; cited from earlier work.
The next series relates to B. microti. Set-up: method as in Yu et al., 2019. The settings on record: ref Yu et al., 2019; read-out: IC50 against B. microti in vitro; cited from earlier work.
For the next series, the target named is LDH-A4. The settings on record: mammalian LDHs, competitive with NADH binding; read-out: K i for LDH-A4; cited from earlier work.
The next series deals with Plasmodium falciparum. Also on record: method as in Vivas et al., 2005. The settings on record: ref Vivas et al., 2005; read-out: IC50 against growth of P. falciparum in vitro; cited from earlier work.
For another series, the target named is BbLDH. The settings on record: read-out: K i against BbLDH; ref Bork et al., 2004; cited from earlier work.
Setting [8] is: SPR, 1:1 binding model, rBmLDH immobilized on CM5.
The mark [9] stands for this setting: 72 h post-treatment, Giemsa smear parasitemia, read-out: IC50 against growth of B. microti in vitro.
Setting [10] is: asexual blood stage, 72 h, read-out: PRA-99 IC50.
Setting [11] is: rBmLDH 100 ng, lactate to pyruvate, absorbance 450 nm, 37°C, read-out: BmLDH IC50.

recombinant BmLDH (rBmLDH), sequence (I7J7V6 entry or part of it): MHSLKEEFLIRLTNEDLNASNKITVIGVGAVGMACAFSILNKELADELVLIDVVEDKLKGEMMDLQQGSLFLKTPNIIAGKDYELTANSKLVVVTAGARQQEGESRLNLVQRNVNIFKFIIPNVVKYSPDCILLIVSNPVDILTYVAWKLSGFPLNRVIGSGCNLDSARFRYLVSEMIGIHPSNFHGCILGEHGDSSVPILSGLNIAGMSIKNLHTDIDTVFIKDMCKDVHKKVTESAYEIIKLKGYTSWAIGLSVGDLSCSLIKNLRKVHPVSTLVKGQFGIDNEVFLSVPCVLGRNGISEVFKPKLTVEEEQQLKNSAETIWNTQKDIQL
rBmLDH, sequence (I7J7V6 entry or part of it): as above

Turning to `CC(=O)NCC(=O)O.CC(=O)NCC(=O)O.N=C(N)c1ccc(N=NNc2ccc(C(=N)N)cc2)cc1` [DA, diminazene aceturate, reference compound], the “inhibition of growth of the parasite” value in series [1] (positive control at 10 μM, 72 h) is ~ 75.54%.

A word on the IC50: it is the concentration that gives 50% inhibition. By CC50 is commonly meant the concentration that lowers cell viability or growth by half. With `O=C(O)c1cc2cc(Br)ccc2c(Br)c1O` [DBHCA, 1,6-Dibromo-2-hydroxynapthalene 3-carboxylic acid], the IC50 in series [2] is 5900 µM; in series [3] (BmLDH IC50, rBmLDH 100 ng, lactate to pyruvate, absorbance 450 nm, 37°C) it was 54 µM; in [3] (IC50 against BmLDH activity, rBmLDH, mean ± SD of three experiments), 53.9 ± 13.3 µM; in series [5] it was 310 µM; in series [1] (setting [9]), 84.8 µM; in [1] (setting [10]), 85 µM. In series [3], the “selectivity over human LDH” value is ~ 109 fold. For the same compound, the cellular hemolysis entry in series [4] is listed as “no cellular hemolysis”. Moreover, the Kd on rBmLDH was 0.0399 µM. Besides, the kon at rBmLDH (SPR, 1:1 binding model, rBmLDH immobilized on CM5, read-out: k a) is 37700 M⁻¹ s⁻¹. For the same compound, the koff at rBmLDH (setting [8]) was 0.0015 s⁻¹. In addition, the “SI (selectivity index)” value with Vero cells worked out at 2.6. The CC50 at 72 h was 217 µM in series [6] (read-out: CC50 Vero) and 216 ± 18 µM in [6] (read-out: CC50 in Vero cells).

Consider `O=C(O)c1cc2cccc(O)c2cc1O` [DHNA, 3,5-Dihydroxy 2-napthoic acid], for which, in [3] (at ~60 μM, read-out: rBmLDH activity inhibited), the inhibition at 60 µM was 100%. Also, the IC50 in series [3] (setting [11]) is 30 µM; in series [3] (rBmLDH, mean ± SD of three experiments, read-out: IC50 against BmLDH activity), 30.2 ± 8.49 µM; in [5], 1700 µM; in [1] (setting [9]) it was 85.7 µM; in [1] (setting [10]) it was 86 µM. Further, in series [3] (rBmLDH vs PfLDH), the “selectivity over PfLDH” value was ~ 57 fold. In addition, the “selectivity over human LDH” value in series [3] is on record as ~ 5,000 fold. Moreover, in [4], the cellular hemolysis result is recorded as “no cellular hemolysis”. Besides, the k a at rBmLDH (setting [8]) is 20.49 1/Ms and 20.49 ± 4.18 × 10^−1 1/Ms. Besides, the Kd at rBmLDH (SPR, 1:1 binding model, rBmLDH immobilized on CM5, read-out: K D) stood at 37.7 µM. Moreover, at rBmLDH (setting [8]), the koff turned out to be 0.000772 s⁻¹. Besides, in the series on Vero cells, the “SI (selectivity index)” value amounted to 22.1. For the same compound, the CC50 at 72 h in [6] (read-out: CC50 Vero) was 1900 µM.

As to `CCCc1c(O)c(O)c(C(=O)O)c2cc(Cc3ccccc3)c(C)cc12` [FX11], in the series with human LDH-B, the “inhibition of human LDH-B” value was “not”. The “inhibition of glyceraldehyde-3-phosphate dehydrogenase” value in series [7] is “not”.

With `O=C(O)c1ccc2cc(C(=O)O)ccc2c1` [NDCA, 2,6-Naphthalenedicarboxylic acid], the IC50 in series [2] is 1400 µM; in series [3] (setting [11]), more than 500 µM; in [5], 5100 µM. Moreover, the “inhibitory effect on the BmLDH activity” value in series [3] (even at the high concentration of 500 μM) was “no inhibitory effect”.

For the compound `COc1cccc2c1C(=O)c1c(O)c3c(c(O)c1C2=O)C[C@@](O)(C(=O)CO)C[C@@H]3O[C@H]1C[C@H](N)[C@H](O)[C@H](C)O1` [doxorubicin, reference compound], the inhibition at 3 µM in the series on Vero cells (Chlorocebus sabaeus, Vero, positive control at 3 µM, read-out: inhibition of growth of Vero cells) was approximately 95%.

With `Cc1cc2c(C(C)C)c(O)c(O)c(C=O)c2c(O)c1-c1c(C)cc2c(C(C)C)c(O)c(O)c(C=O)c2c1O` [gossypol], the Ki was 4.2 µM at LDH-C4; 0.67 µM on BmLDH; 1.4 µM on LDH-B4; 0.7 µM in series [5] (competitive, ref Vivas et al., read-out: K i against PfLDH); 1.9 µM on LDH-A4; 0.085 µM on BbLDH. Besides, the inhibition at 0.7 µM in [3] (read-out: inhibition of the catalytic activity of BmLDH) is approximately 100%. Moreover, the concentration for half-maximal inhibition (IC50) in the series with Babesia bovis was 50 µM; in the series with B. microti it was 7.07 µM; in the series with Plasmodium falciparum, 15.3 µM.
